What was measured:
[1] = Inhibition of linoleic acid peroxidation induced by AAPH radical; conditions: 100 μM, 37 °C, pH 7.4
Procedure: The in vitro assays were performed at a concentration of 100 µM (a 10 mM stock solution in DMSO was used, from which several dilutions were made for the determination of IC50 values), at least in triplicate, and the standard deviation of absorbance was less than 10% of the mean. The compounds were diluted in 0.1% DMSO under sonification in an appropriate buffer in several dilutions. Statistical comparisons were made using Student’s t-test. A statistically significant difference was defined as p < 0.05. The results were compared to the corresponding reference compounds.
The determination of the ability of the synthesized compounds to inhibit linoleic acid peroxidation induced by the radical initiator 2,2-Azobis(2-amidinopropane) dihydrochloride (AAPH) was performed according to Hadjipavlou-Litina et al.. Ten microliters of the 16 mM sodium linoleate solution were added to the UV cuvette containing 0.93 mL of a 0.05 M phosphate buffer, pH 7.4, pre-thermostated at 37 °C. The oxidation reaction was initiated at 37 °C under air by the addition of 50 µL of a 40 mM AAPH solution, which was used as a free radical initiator. Oxidation was carried out in the presence of aliquots (10 µL) in the assay without antioxidants and monitored at 234 nm. Lipid oxidation was recorded in the presence of the same level of DMSO served as a negative control. results are compared to the appropriate standard compound Trolox.
In an attempt to assess the in vitro antioxidant potential of the synthesized compounds, their inhibitory activity against lipid peroxidation of linoleic acid sodium salt was examined, induced by AAPH radical under atmospheric oxygen at 37 °C. The anti-lipid peroxidation was recorded with UV spectrophotometrically. The assay is a quick and widely used method for the assessment of antioxidant activity.

[2] = molecular target: T1, soybean lipoxygenase (LOX) (Glycine max, UniProt P08170); assay: Soybean LOX inhibition in vitro; type: biochemical; conditions: for IC50: sodium linoleate substrate; for inhibition at 100 µM: 100 μM (0.1 mM), read-out: Inhibition of LOX (% at 100 μΜ)
T1 sequence (P08170 1-839): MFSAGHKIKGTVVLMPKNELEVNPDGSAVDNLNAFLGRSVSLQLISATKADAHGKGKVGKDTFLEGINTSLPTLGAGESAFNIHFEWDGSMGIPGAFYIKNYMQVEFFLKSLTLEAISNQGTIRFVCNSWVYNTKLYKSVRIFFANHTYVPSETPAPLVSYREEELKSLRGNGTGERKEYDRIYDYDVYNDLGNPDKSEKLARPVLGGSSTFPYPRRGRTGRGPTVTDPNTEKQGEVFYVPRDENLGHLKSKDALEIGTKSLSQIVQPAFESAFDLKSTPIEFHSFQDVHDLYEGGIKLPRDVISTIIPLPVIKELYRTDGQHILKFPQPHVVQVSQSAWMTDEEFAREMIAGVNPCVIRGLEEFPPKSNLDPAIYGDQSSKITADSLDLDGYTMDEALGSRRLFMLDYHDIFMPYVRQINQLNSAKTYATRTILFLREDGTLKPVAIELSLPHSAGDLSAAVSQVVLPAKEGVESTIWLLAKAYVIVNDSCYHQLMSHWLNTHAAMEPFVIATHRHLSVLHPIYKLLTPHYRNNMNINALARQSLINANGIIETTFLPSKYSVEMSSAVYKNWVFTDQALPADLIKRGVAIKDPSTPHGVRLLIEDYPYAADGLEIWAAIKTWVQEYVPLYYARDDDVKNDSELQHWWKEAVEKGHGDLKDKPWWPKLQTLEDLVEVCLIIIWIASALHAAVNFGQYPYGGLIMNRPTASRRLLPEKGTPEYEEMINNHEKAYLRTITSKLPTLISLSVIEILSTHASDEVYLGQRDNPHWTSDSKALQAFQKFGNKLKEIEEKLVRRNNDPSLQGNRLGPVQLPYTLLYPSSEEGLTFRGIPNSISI
Procedure: The compounds were diluted in 0.1% DMSO under sonification in an appropriate buffer in several dilutions. Statistical comparisons were made using Student’s t-test. A statistically significant difference was defined as p < 0.05.
The determination of the inhibition of soybean LOX for the synthesized compounds was performed according to Hadjipavlou-Litina et al.. The tested compounds were incubated at room temperature with sodium linoleate (0.1 mM) and 0.2 mL of enzyme solution (1/9 × 10^−4 w/v in saline). The method was based on the conversion of sodium linoleate to 13-hydroperoxylinoleic acid at 234 nm. In order to determine the […] values, different concentrations were used.
As evidence of anti-inflammatory activity, the quinolinone derivatives were examined for their ability to inhibit soybean lipoxygenase (LOX). LOX catalyzes the cleavage of arachidonic acid to leukotrienes that are found to play a crucial role in the pathogenesis of some inflammatory diseases.

A549 cell line = assay: Cytotoxicity, MTT assay, A549 cells; conditions: Homo sapiens, A549, 24 h, read-out: % Cytotoxicity A549 (100 μΜ)
Procedure: (§1) The determination of the cell viability of HaCaT cells and the cell toxicity of A549 and A375 cell lines was performed according to Myriagkou et al. [57], via the MTT (3-(4,5-dimethylthiazol-2-yl)-2,5-diphenyltetrazolium bromide) assay. In a 96-well plate, cells were seeded at specific concentrations (30 × 10^4 cells/mL for HaCaT cells and 20 × 10^4 cells/mL for A549 and A375 cells) and incubated (37 °C, 5% CO2) for 24 h. Following this first incubation period, solutions of the tested compounds at various concentrations were added to the cells, and the plates were incubated for an additional 24 h. Upon the second incubation period, the appropriate volume of MTT solution (1 mg/mL in PBS, filtrated through a 0.22-μm filter) was added to each well, and the plate was incubated for 4 h, during which formazan crystals were formed. The crystals were dissolved by addition of 100 μL od DMSO in each cell and after 30 min of stirring, the absorbance was recorded at 450 nm using a microplate reader. All tests were undertaken on three replicates and compared to the control (untreated cells), the blank (medium), and the reference control (cells treated with 100 μM silibinin).
(§2) The cytotoxicity of the novel compounds was also measured via the mehtylthiazol tetrazolium (MTT) assay.

A375 cell line = assay: Cytotoxicity, MTT assay, A375 cells; conditions: Homo sapiens, A-375, 24 h, read-out: % Cytotoxicity A375 (100 μΜ)
Procedure: as §1, §2

[3] = Cell viability, MTT assay, HaCaT cells; conditions: human
Procedure: as §1, §2

in vitro = conditions: human
Procedure: as §1, §2

| SMILES | IC50 [2] [µM] | Inhibition of Linoleic Acid Peroxidation (% at 100 μΜ) [1] [%] | cytotoxicity at 100 µM (A549 cell line) [%] | cytotoxicity at 100 µM (A375 cell line) [%] | viability at 24 h, 100 µM [3] [%] | inhibition at 100 µM [2] [%] | viability at 24 h, 100 µM (in vitro) [%] |
| --- | --- | --- | --- | --- | --- | --- | --- |
| O=C(NCc1cn(Cc2ccccc2)nn1)c1c(O)c2ccccc2n(CCCc2ccccc2)c1=O [5f, N-((1-benzyl-1H-1,2,3-triazol-4-yl)methyl)-4-hydroxy-2-oxo-1-(3-phenylpropyl)-1,2-dihydroquinoline-3-carboxamide] | 50 | 98.0 | 12.5 | 23.7 | 100 |  |  |
| COc1cc(C2Oc3cc([C@H]4Oc5cc(O)cc(O)c5C(=O)[C@@H]4O)ccc3OC2CO)ccc1O (some centres unmarked) [Silibinin, silibinin, reference compound] |  |  | 57.4 | 12.6 | 47.2 |  |  |
| CC(C)=CCn1cc(CNC(=O)c2c(O)c3ccccc3n(CC=Cc3ccccc3)c2=O)nn1 [5h, 1-cinnamyl-4-hydroxy-N-((1-(3-methylbut-2-en-1-yl)-1H-1,2,3-triazol-4-yl)methyl)-2-oxo-1,2-dihydroquinoline-3-carboxamide] |  | 18.7 | 0 | 0 | 98.9 | 44.5 |  |
| C#CCNC(=O)c1c(O)c2ccccc2n(CC)c1=O [4c, 1-ethyl-4-hydroxy-2-oxo-N-(prop-2-yn-1-yl)-1,2-dihydroquinoline-3-carboxamide] | 22.5 | 100 | 16.4 | 0.2 | 90.5 |  |  |
| C#CCNC(=O)c1c(O)c2ccccc2n(Cc2ccccc2)c1=O [4b, 1-benzyl-4-hydroxy-2-oxo-N-(prop-2-yn-1-yl)-1,2-dihydroquinoline-3-carboxamide] | 43.2 | 14.7 | 45.7 | 7.6 | 88.7 |  |  |
| C#CCNC(=O)c1c(O)c2ccccc2n(CCCCCCCC)c1=O [4e, 4-hydroxy-1-octyl-2-oxo-N-(prop-2-yn-1-yl)-1,2-dihydroquinoline-3-carboxamide] | 48.3 | 34.9 | 33.7 | 22.6 | 76.2 |  |  |
| C#CCNC(=O)c1c(O)c2ccccc2n(CCCc2ccccc2)c1=O [4f, 4-hydroxy-2-oxo-1-(3-phenylpropyl)-N-(prop-2-yn-1-yl)-1,2-dihydroquinoline-3-carboxamide] |  | 81.1 | 0 | 0 |  | 49.3 | 76.9 |
| Cc1c(C)c2c(c(C)c1O)CCC(C)(C(=O)O)O2 (centres unmarked) [Trolox, reference compound] |  | 88.0 |  |  |  |  |  |
| CC(C)=CCn1cc(CNC(=O)c2c(O)c3ccccc3n(Cc3ccccc3)c2=O)nn1 [5j, 1-benzyl-4-hydroxy-N-((1-(3-methylbut-2-en-1-yl)-1H-1,2,3-triazol-4-yl)methyl)-2-oxo-1,2-dihydroquinoline-3-carboxamide] | 41 | 92.0 | 18.8 | 0 | 100 |  |  |
| O=C(NCc1cn(Cc2ccccc2)nn1)c1c(O)c2ccccc2n(Cc2ccccc2)c1=O [5b, 1-benzyl-N-((1-benzyl-1H-1,2,3-triazol-4-yl)methyl)-4-hydroxy-2-oxo-1,2-dihydroquinoline-3-carboxamide] | 46 | 89.0 | 49.9 | 0 | 86.5 |  |  |
| C#CCNC(=O)c1c(O)c2ccccc2n(C)c1=O [4a, 4-hydroxy-1-methyl-2-oxo-N-(prop-2-yn-1-yl)-1,2-dihydroquinoline-3-carboxamide] |  | 42.7 | 0 | 7 | 61.5 |  |  |
| C#CCNC(=O)c1c(O)c2ccccc2n(CC=Cc2ccccc2)c1=O [4g, 1-cinnamyl-4-hydroxy-2-oxo-N-(prop-2-yn-1-yl)-1,2-dihydroquinoline-3-carboxamide] | 51.2 | 27.6 | 35.2 | 11.7 | 100 |  |  |

More lines, main results first:

| IC50 [2] [µM] | SMILES | Inhibition of Linoleic Acid Peroxidation (% at 100 μΜ) [1] [%] | cytotoxicity at 100 µM (A549 cell line) [%] | cytotoxicity at 100 µM (A375 cell line) [%] | viability at 24 h, 100 µM [3] [%] | inhibition at 100 µM [2] [%] | viability at 24 h, 100 µM (in vitro) [%] |
| --- | --- | --- | --- | --- | --- | --- | --- |
| 70 | CCn1c(=O)c(C(=O)NCc2cn(CC=C(C)C)nn2)c(O)c2ccccc21 [5i, 1-ethyl-4-hydroxy-N-((1-(3-methylbut-2-en-1-yl)-1H-1,2,3-triazol-4-yl)methyl)-2-oxo-1,2-dihydroquinoline-3-carboxamide] | 96.0 |  |  |  |  |  |
| 47.5 | CCn1c(=O)c(C(=O)NCc2cn(CCCc3ccccc3)nn2)c(O)c2ccccc21 [5d, 1-ethyl-4-hydroxy-2-oxo-N-((1-(3-phenylpropyl)-1H-1,2,3-triazol-4-yl)methyl)-1,2-dihydroquinoline-3-carboxamide] | 92.0 | 28.9 | 10.5 | 99.6 |  |  |
| 51.5 | CCn1c(=O)c(C(=O)NCc2cn(Cc3ccccc3)nn2)c(O)c2ccccc21 [5c, N-((1-benzyl-1H-1,2,3-triazol-4-yl)methyl)-1-ethyl-4-hydroxy-2-oxo-1,2-dihydroquinoline-3-carboxamide] | 94.0 | 0 | 0 | 100 |  |  |
| 75 | CC(C)=CCn1c(=O)c(C(=O)NCc2cn(Cc3ccccc3)nn2)c(O)c2ccccc21 [5g, N-((1-benzyl-1H-1,2,3-triazol-4-yl)methyl)-4-hydroxy-1-(3-methylbut-2-en-1-yl)-2-oxo-1,2-dihydroquinoline-3-carboxamide] | 83.0 | 13.4 | 46.8 | 100 |  |  |
| 10 | Cn1c(=O)c(C(=O)NCc2cn(Cc3ccccc3)nn2)c(O)c2ccccc21 [5a, N-((1-benzyl-1H-1,2,3-triazol-4-yl)methyl)-4-hydroxy-1-methyl-2-oxo-1,2-dihydroquinoline-3-carboxamide] | 98.0 | 24.2 | 0 | 100 |  |  |
| 45 | CCn1c(=O)c(C(=O)NCc2cn(C/C=C/c3ccccc3)nn2)c(O)c2ccccc21 [5e, (E)-N-((1-cinnamyl-1H-1,2,3-triazol-4-yl)methyl)-1-ethyl-4-hydroxy-2-oxo-1,2-dihydroquinoline-3-carboxamide] | 91.0 | 7.3 | 35.2 | 27.6 |  |  |
